Key:
Assay type in all cases: cell-based, human
PC-3 = assay: NCI-60 one-dose screen (prostate cancer); settings: 10 µM single dose, 48 h
Protocol: (§1) The obtained quinolinequinones were submitted to NCI, Bethesda, USA, and, as per standard protocol of NCI, all compounds were evaluated for their antiproliferative activity at single-dose assay (10 µM concentration in DMSO) on a panel of 60 cancer cell lines derived from leukemia, non-small-cell lung, colon, CNS, melanoma, ovarian, renal, prostate, and breast, as per protocol. Tested compounds were added to the microtiter culture plates followed by incubation for 48 h at 37 °C. Sulforhodamine B (SRB), a protein-binding dye, is used for endpoint determination. The percent of the growth of the treated cells was determined in comparison to the untreated control cells and the results of each tested compound were reported. Data from one-dose experiments pertain to the percentage growth at 10 μM [16, 17, 18].

DU-145 = assay: NCI-60 one-dose screen (prostate cancer); settings: 10 µM single dose, 48 h
Protocol: as §1

SF-295 = assay: NCI-60 one-dose screen (CNS cancer); settings: 10 µM single dose, 48 h
Protocol: as §1

SF-539 = assay: NCI-60 one-dose screen (CNS cancer); settings: 10 µM single dose, 48 h
Protocol: as §1

U251 = assay: NCI-60 one-dose screen (CNS cancer); settings: 10 µM single dose, 48 h
Protocol: as §1

SNB-75 = assay: NCI-60 one-dose screen (CNS cancer); settings: 10 µM single dose, 48 h
Protocol: as §1

SNB-19 = assay: NCI-60 one-dose screen (CNS cancer); settings: 10 µM single dose, 48 h
Protocol: as §1

SF-268 = assay: NCI-60 one-dose screen (CNS cancer); settings: 10 µM single dose, 48 h
Protocol: as §1

MDA-MB-231/ATCC = assay: NCI-60 one-dose screen (breast cancer); settings: 10 µM single dose, 48 h
Protocol: as §1

BT-549 = assay: NCI-60 one-dose screen (breast cancer); settings: 10 µM single dose, 48 h
Protocol: as §1

T-47D = assay: NCI-60 one-dose screen (breast cancer); settings: 10 µM single dose
Protocol: as §1

MDA-MB-468 = assay: NCI-60 one-dose screen (breast cancer); settings: 10 µM single dose, 48 h
Protocol: as §1

HS 578T = assay: NCI-60 one-dose screen (breast cancer); settings: 10 µM single dose, 48 h
Protocol: as §1

MCF7 = assay: NCI-60 one-dose screen (breast cancer); settings: 10 µM single dose, 48 h
Protocol: as §1

A498 = assay: NCI-60 one-dose screen (renal cancer); settings: 10 µM single dose, 48 h
Protocol: as §1

TK-10 = assay: NCI-60 one-dose screen (renal cancer); settings: 10 µM single dose, 48 h
Protocol: as §1

786-0 = assay: NCI-60 one-dose screen (renal cancer); settings: 10 µM single dose, 48 h
Protocol: as §1

SN12C = assay: NCI-60 one-dose screen (renal cancer); settings: 10 µM single dose, 48 h
Protocol: as §1

UO-31 = assay: NCI-60 one-dose screen (renal cancer); settings: 10 µM single dose, 48 h
Protocol: as §1

ACHN = assay: NCI-60 one-dose screen (renal cancer); settings: 10 µM single dose, 48 h
Protocol: as §1

NCI-H460 = assay: NCI-60 one-dose screen (non-small cell lung cancer); settings: 10 µM single dose, 48 h
Protocol: as §1

NCI-H322M = assay: as above; settings: 10 µM single dose, 48 h
Protocol: as §1

EKVX = assay: as above; settings: 10 µM single dose, 48 h
Protocol: as §1

NCI-H522 = assay: as above; settings: 10 µM single dose, 48 h
Protocol: as §1

A549/ATCC = assay: as above; settings: 10 µM single dose, 48 h
Protocol: as §1

HOP-92 = assay: as above; settings: 10 µM single dose, 48 h
Protocol: as §1

NCI-H23 = assay: as above; settings: 10 µM single dose, 48 h
Protocol: as §1

NCI-H226 = assay: as above; settings: 10 µM single dose, 48 h
Protocol: as §1

HOP-62 = assay: as above; settings: 10 µM single dose, 48 h
Protocol: as §1

SR = assay: NCI-60 one-dose screen (leukemia); settings: 10 µM single dose
Protocol: as §1

HL-60(TB) = assay: NCI-60 one-dose screen (leukemia); settings: 10 µM single dose
Protocol: as §1

K-562 = assay: NCI-60 one-dose screen (leukemia)
Protocol: as §1

CCRF-CEM = assay: NCI-60 one-dose screen (leukemia); settings: 10 µM single dose
Protocol: as §1

RPMI-8226 = assay: NCI-60 one-dose screen (leukemia); settings: 10 µM single dose, 48 h
Protocol: as §1

MOLT-4 = assay: NCI-60 one-dose screen (leukemia); settings: 10 µM single dose, 48 h
Protocol: as §1

OVCAR-8 = assay: NCI-60 one-dose screen (ovarian cancer); settings: 10 µM single dose, 48 h
Protocol: as §1

SK-OV-3 = assay: NCI-60 one-dose screen (ovarian cancer); settings: 10 µM single dose, 48 h
Protocol: as §1

NCI/ADR-RES = assay: NCI-60 one-dose screen (ovarian cancer); settings: 10 µM single dose, 48 h
Protocol: as §1

OVCAR-5 = assay: NCI-60 one-dose screen (ovarian cancer); settings: 10 µM single dose, 48 h
Protocol: as §1

OVCAR-4 = assay: NCI-60 one-dose screen (ovarian cancer); settings: 10 µM single dose, 48 h
Protocol: as §1

OVCAR-3 = assay: NCI-60 one-dose screen (ovarian cancer); settings: 10 µM single dose
Protocol: as §1

IGROV1 = assay: NCI-60 one-dose screen (ovarian cancer)
Protocol: as §1

HCC-2998 = assay: NCI-60 one-dose screen (colon cancer); settings: 10 µM single dose, 48 h
Protocol: as §1

SW-620 = assay: NCI-60 one-dose screen (colon cancer); settings: 10 µM single dose, 48 h
Protocol: as §1

HCT-116 = assay: NCI-60 one-dose screen (colon cancer); settings: 10 µM single dose, 48 h
Protocol: as §1

KM12 = assay: NCI-60 one-dose screen (colon cancer); settings: 10 µM single dose, 48 h
Protocol: as §1

HCT-15 = assay: NCI-60 one-dose screen (colon cancer); settings: 10 µM single dose, 48 h
Protocol: as §1

COLO 205 = assay: NCI-60 one-dose screen (colon cancer); settings: 10 µM single dose, 48 h
Protocol: as §1

HT29 = assay: NCI-60 one-dose screen (colon cancer); settings: 10 µM single dose, 48 h
Protocol: as §1

SK-MEL-2 = assay: NCI-60 one-dose screen (melanoma); settings: 10 µM single dose, 48 h
Protocol: as §1

SK-MEL-28 = assay: NCI-60 one-dose screen (melanoma); settings: 10 µM single dose, 48 h
Protocol: as §1

MDA-MB-435 = assay: NCI-60 one-dose screen (melanoma); settings: 10 µM single dose, 48 h
Protocol: as §1

UACC-257 = assay: NCI-60 one-dose screen (melanoma); settings: 10 µM single dose, 48 h
Protocol: as §1

LOX IMVI = assay: NCI-60 one-dose screen (melanoma); settings: 10 µM single dose, 48 h
Protocol: as §1

UACC-62 = assay: NCI-60 one-dose screen (melanoma); settings: 10 µM single dose, 48 h
Protocol: as §1

SK-MEL-5 = assay: NCI-60 one-dose screen (melanoma); settings: 10 µM single dose, 48 h
Protocol: as §1

MALME-3M = assay: NCI-60 one-dose screen (melanoma); settings: 10 µM single dose, 48 h
Protocol: as §1

In the case of COc1ccc(NC2=C(Cl)C(=O)c3nc(C)ccc3C2=O)cc1OC [AQQ4], the “GP (growth percentage)” value (PC-3) is reported as 70.56%, the “GP (growth percentage)” value (DU-145) is reported as 93.00% and the “GP (growth percentage)” value (SF-295) is reported as 103.62%. For the same molecule, the “GP (growth percentage)” value (SF-539) was 103.46%, the “GP (growth percentage)” value (U251) was 105.80% and the “GP (growth percentage)” value (SNB-75) was 110.92%. The “GP (growth percentage)” value (SNB-19) was 94.62%, the “GP (growth percentage)” value (SF-268) was 84.69% and the “GP (growth percentage)” value (MDA-MB-231/ATCC) was 72.96%. The “GP (growth percentage)” value (BT-549) was 126.22%, the “GP (growth percentage)” value (T-47D; 48 h) was 14.93% and the inhibition at 10 µM (T-47D; Homo sapiens, T47D) was 85.1%. The “GP (growth percentage)” value (MDA-MB-468) was 58.11%, the “GP (growth percentage)” value (HS 578T) was 118.57% and the “GP (growth percentage)” value (MCF7) was 59.00%. For the same molecule, the “GP (growth percentage)” value (A498) was 82.55%, the “GP (growth percentage)” value (TK-10) was 148.82% and the “GP (growth percentage)” value (786-0) was 98.99%. The “GP (growth percentage)” value (SN12C) was 90.46%, the “GP (growth percentage)” value (UO-31) was 100.30% and the “GP (growth percentage)” value (ACHN) was 95.00%. For the same molecule, the “GP (growth percentage)” value (NCI-H460) was 100.46%, the “GP (growth percentage)” value (NCI-H322M) was 99.05% and the “GP (growth percentage)” value (EKVX) was 50.81%. For the same molecule, the “GP (growth percentage)” value (NCI-H522) was 78.84%, the “GP (growth percentage)” value (A549/ATCC) was 107.06% and the “GP (growth percentage)” value (HOP-92) was 112.07%. The “GP (growth percentage)” value (NCI-H23) was 59.03%, the “GP (growth percentage)” value (NCI-H226) was 97.11% and the “GP (growth percentage)” value (HOP-62) was 110.03%. For the same molecule, the “GP (growth percentage)” value (SR; 48 h) was 0.92%, the inhibition at 10 µM (SR; Homo sapiens) was 99.1% and the “GP (growth percentage)” value (HL-60(TB); 48 h) was 9.95%. For the same molecule, the inhibition at 10 µM (HL-60(TB); Homo sapiens) was 90%, the “GP (growth percentage)” value (K-562; 10 µM single dose, 48 h) was 7.18% and the inhibition at 10 µM (K-562; Homo sapiens, K562, 10 µM single dose) was 92.8%. For the same molecule, the “GP (growth percentage)” value (CCRF-CEM; 48 h) was 15.29%, the inhibition at 10 µM (CCRF-CEM; Homo sapiens) was 84.7% and the “GP (growth percentage)” value (RPMI-8226) was 47.33%. The “GP (growth percentage)” value (MOLT-4) was 69.83%, the “GP (growth percentage)” value (OVCAR-8) was 92.63% and the “GP (growth percentage)” value (SK-OV-3) was 91.82%. For the same molecule, the “GP (growth percentage)” value (NCI/ADR-RES) was 94.66%, the “GP (growth percentage)” value (OVCAR-5) was 104.66% and the “GP (growth percentage)” value (OVCAR-4) was 71.38%. For the same molecule, the “GP (growth percentage)” value (OVCAR-3; 48 h) was 13.16%, the inhibition at 10 µM (OVCAR-3; Homo sapiens) was 86.8% and the “GP (growth percentage)” value (IGROV1; 10 µM single dose, 48 h) was 19.63%. For the same molecule, the inhibition at 10 µM (IGROV1; Homo sapiens, IGROV-1, 10 µM single dose) was 80.4%, the “GP (growth percentage)” value (HCC-2998) was 103.69% and the “GP (growth percentage)” value (SW-620) was 72.23%. For the same molecule, the “GP (growth percentage)” value (HCT-116) was 55.84%, the “GP (growth percentage)” value (KM12) was 98.23% and the “GP (growth percentage)” value (HCT-15) was 82.29%. The “GP (growth percentage)” value (COLO 205) was 107.70%, the “GP (growth percentage)” value (HT29) was 109.56% and the “GP (growth percentage)” value (SK-MEL-2) was 100.13%. For the same molecule, the “GP (growth percentage)” value (SK-MEL-28) was 101.65%, the “GP (growth percentage)” value (MDA-MB-435) was −67.16% and the “GP (growth percentage)” value (UACC-257) was 91.03%. The “GP (growth percentage)” value (LOX IMVI) was −3.09%, the “GP (growth percentage)” value (UACC-62) was 71.83% and the “GP (growth percentage)” value (SK-MEL-5) was 86.57%. The “GP (growth percentage)” value (MALME-3M) was 94.54%.
